Measured values from patent US8614218B2, “Fused bicyclic pyrimidines” (Bayer Intellectual Property GmbH, priority 2007, dated 2013).

Tests used:
OvCAR3 cells = assay: Cellular proliferation/cytotoxicity assay (Alamar Blue), OvCAR3; type: cell-based; details: Homo sapiens, OVCAR-3, 72 h, Alamar Blue (Resazurin), read-out: Anti-proliferative/Cytotoxic activity (OvCAR3 cells)
Description: (§1) Cellular Proliferation/Cytotoxicity Assay:
(§2) The anti-proliferative activity of the compounds as described herein, is evaluated using the OvCAR3, HCT116 and A549 cell lines and the Alamar Blue (Resazurin) cell viability assay (O'Brien et al. Eur J Biochem 267, 5421-5426, 2000). Resazurin is reduced to the fluorescent resorufin by cellular dehydrogenase activity, correlating with viable, proliferating cells. Test compounds are dissolved as 10 mM solutions in DMSO and subsequently diluted. Cells like HCT116 or A549 cells were seeded into 96 well flat bottom plates at a density of 10000 cells/well (OvCAR3 cells), 1000 cells/well (HCT116 cells) or 2000 cells/well (A549 cells) in a volume of 200 μl/well. 24 hours after seeding, 1 μl each of the compound dilutions are added into each well of the 96 well plates. Each compound dilution is tested as at least as duplicates. Wells containing untreated control cells were filled with 200 μl DMEM (Dulbecco's Modified Eagle Medium) containing 0.5 vol % v:v DMSO. The cells are then incubated with the substances for 72 h at 37° C. in a humidified atmosphere containing 5 vol % CO2. To determine the viability of the cells, 20 μl of a Resazurin solution (90 mg/l) are added. After 4 h incubation at 37° C., the fluorescence is measured by extinction at λ=544 nm and an emission of λ=590 nm (Wallac Victor2; Perkin Elmer, USA). For the calculation of the cell viability, the emission value from untreated cells is set as 100% viability and the fluorescence intensity of treated cells are set in relation to the values of untreated cells. Viabilities are expressed as % values. The corresponding IC50 values of the compounds for cytotoxic activity are determined from the concentration-effect curves by means of non-linear regression. The analysis of the data is performed using a biostatistical program (GraphPad Prism, USA).
(§3) Representative IC50 values for anti-proliferative/cytotoxic potency determined in the aforementioned assay follow from the following table, in which the numbers of the compound correspond to the numbers of the examples.

A549 cells = assay: Cellular proliferation/cytotoxicity assay (Alamar Blue), A549; type: cell-based; details: Homo sapiens, 72 h, Alamar Blue (Resazurin), read-out: Anti-proliterative/Cytotoxic activity (A549 cells)
Description: as §1, §2, §3

Compound | IC50 (OvCAR3 cells) | IC50 (A549 cells)
c1ccc(-c2cn3ncnc3nc2-c2ccc(CN3CCC(c4n[nH]c(-c5ccccn5)n4)CC3)cc2)cc1 [Example 2, 6-phenyl-5-(4-{[4-(5-pyridin-2-yl-1,2,4-triazol-3-yl)piperidin-1-yl]methyl}phenyl)[1,2,4]triazolo[1,5-a]pyrimidine] | < 10 µM | > 10 µM
Cc1nc2nc(-c3ccc(CN4CCC(c5n[nH]c(-c6ccccn6)n5)CC4)cc3)c(-c3ccccc3)cn2n1 [Example 3, 2-methyl-6-phenyl-5-(4-{[4-(5-pyridin-2-yl-1,2,4-triazol-3-yl)piperidin-1-yl]methyl}phenyl)[1,2,4]triazolo[1,5-a]pyrimidine] | < 10 µM | < 10 µM
c1ccc(-c2cn3ccnc3nc2-c2ccc(CN3CCC(c4n[nH]c(-c5ccncc5)n4)CC3)cc2)cc1 [Example 6, 6-phenyl-7-(4-{[4-(5-pyridin-4-yl-1,2,4-triazol-3-yl)piperidin-1-yl]methyl}phenyl)imidazo[1,2-a]pyrimidine] | < 10 µM | < 10 µM
C=Cc1cnc2nc(-c3ccc(CN4CCC(c5n[nH]c(-c6ccccn6)n5)CC4)cc3)c(-c3ccccc3)cn12 [Example 15, 6-phenyl-7-(4-{[4-(5-pyridin-2-yl-1,2,4-triazol-3-yl)piperidin-1-yl]methyl}phenyl)-3-vinylimidazo[1,2-a]pyrimidine] | < 10 µM | > 10 µM
CCc1cn2cc(-c3ccccc3)c(-c3ccc(CN4CCC(c5n[nH]c(-c6ccccn6)n5)CC4)cc3)nc2n1 [Example 17, 2-ethyl-6-phenyl-7-(4-{[4-(5-pyridin-2-yl-1,2,4-triazol-3-yl)piperidin-1-yl]methyl}phenyl)imidazo[1,2-a]pyrimidine] | < 10 µM | < 10 µM
CCOC(=O)c1cn2cc(-c3ccccc3)c(-c3ccc(CN4CCC(c5n[nH]c(-c6ccccn6)n5)CC4)cc3)nc2n1 [Example 16, Ethyl 6-phenyl-7-(4-{[4-(5-pyridin-2-yl-1,2,4-triazol-3-yl)piperidin-1-yl]methyl}phenyl)imidazo[1,2-a]pyrimidine-2-carboxylate] | < 10 µM | > 10 µM
Fc1cnc2nc(-c3ccc(CN4CCC(c5n[nH]c(-c6ccccn6)n5)CC4)cc3)c(-c3ccccc3)cn12 [Example 9, 3-fluoro-6-phenyl-7-(4-{[4-(5-pyridin-2-yl-1H-1,2,4-triazol-3-yl)piperidin-1-yl]methyl}phenyl)imidazo[1,2-a]pyrimidine] | < 10 µM | > 10 µM
Cc1cnc2nc(-c3ccc(CN4CCC(c5n[nH]c(-c6ccccn6)n5)CC4)cc3)c(-c3ccccc3)cn12 [Example 14, 3-methyl-6-phenyl-7-(4-{[4-(5-pyridin-2-yl-1,2,4-triazol-3-yl)piperidin-1-yl]methyl}phenyl)imidazo[1,2-a]pyrimidine] | < 10 µM | < 10 µM
N#Cc1cnc2nc(-c3ccc(CN4CCC(c5n[nH]c(-c6ccccn6)n5)CC4)cc3)c(-c3ccccc3)cn12 [Example 8, 6-phenyl-7-(4-{[4-(5-pyridin-2-yl-1,2,4-triazol-3-yl)piperidin-1-yl]methyl}phenyl)imidazo[1,2-a]pyrimidine-3-carbonitrile] | < 10 µM | > 10 µM
C#Cc1cnc2nc(-c3ccc(CN4CCC(c5n[nH]c(-c6ccccn6)n5)CC4)cc3)c(-c3ccccc3)cn12 [Example 13, 3-ethynyl-6-phenyl-7-(4-{[4-(5-pyridin-2-yl-1,2,4-triazol-3-yl)piperidin-1-yl]methyl}phenyl)imidazo[1,2-a]pyrimidine] | < 10 µM | < 10 µM
CNc1c(-c2ccccc2)c(-c2ccc(CN3CCC(c4n[nH]c(-c5ccccn5)n4)CC3)cc2)nc2nccn12 [Example 10, N-methyl-6-phenyl-7-(4-{[4-(5-pyridin-2-yl-1,2,4-triazol-3-yl)piperidin-1-yl]methyl}phenyl)imidazo[1,2-a]pyrimidin-5-amine] | < 10 µM | > 10 µM
Clc1cnc2nc(-c3ccc(CN4CCC(c5n[nH]c(-c6ccccn6)n5)CC4)cc3)c(-c3ccccc3)cn12 [Example 12, 3-chloro-6-phenyl-7-(4-{[4-(5-pyridin-2-yl-1,2,4-triazol-3-yl)piperidin-1-yl]methyl}phenyl)imidazo[1,2-a]pyrimidine] | < 10 µM | < 10 µM
c1ccc(-c2cn3ccnc3nc2-c2ccc(CN3CCC(c4n[nH]c(-c5ncccn5)n4)CC3)cc2)cc1 [Example 18, 6-phenyl-7-(4-{[4-(5-pyrimidin-2-yl-1,2,4-triazol-3-yl)piperidin-1-yl]methyl}phenyl)imidazo[1,2-a]pyrimidine] | < 10 µM | > 10 µM
CCc1cnc2nc(-c3ccc(CN4CCC(c5n[nH]c(-c6ccccn6)n5)CC4)cc3)c(-c3ccccc3)cn12 [Example 22, 3-ethyl-6-phenyl-7-(4-{[4-(5-pyridin-2-yl-1,2,4-triazol-3-yl)piperidin-1-yl]methyl}phenyl)imidazo[1,2-a]pyrimidine] | < 10 µM | > 10 µM
c1ccc(-c2cn3ccnc3nc2-c2ccc(CN3CCC(c4cc(-c5ccccn5)n[nH]4)CC3)cc2)cc1 [Example 5, 6-phenyl-7-(4-{[4-(3-pyridin-2-yl-pyrazol-5-yl)piperidin-1-yl]methyl}phenyl)imidazo[1,2-a]pyrimidine] | < 10 µM | < 10 µM
c1ccc(-c2cn3nc(C4CC4)nc3nc2-c2ccc(CN3CCC(c4n[nH]c(-c5ccccn5)n4)CC3)cc2)cc1 [Example 4, 2-cyclopropyl-6-phenyl-5-(4-{[4-(5-pyridin-2-yl-1,2,4-triazol-3-yl)piperidin-1-yl]methyl}phenyl)[1,2,4]triazolo[1,5-a]pyrimidine] | < 10 µM | < 10 µM
Cc1nc2nc(-c3ccc(CN4CCC(c5n[nH]c(-c6ccccn6)n5)CC4)cc3)c(-c3ccsc3)cn2n1 [Example 54, 2-Methyl-5-(4-{[4-(5-pyridin-2-yl-1H-1,2,4-triazol-3-yl)piperidin-1-yl]methyl}phenyl)-6-(3-thienyl)[1,2,4]triazolo[1,5-a]pyrimidine] | – | < 10 µM
c1ccc(-c2cn3nccc3nc2-c2ccc(CN3CCC(c4nc(-c5ccco5)n[nH]4)CC3)cc2)cc1 [Example 81, 5-[4-({4-[3-(2-furyl)-1H-1,2,4-triazol-5-yl]piperidin-1-yl}methyl)phenyl]-6-phenylpyrazolo[1,5-a]pyrimidine] | – | < 10 µM
Cc1nc2nc(-c3ccc(CN4CCC(c5nc(-c6ccc[nH]6)n[nH]5)CC4)cc3)c(-c3ccccc3)cn2n1 [Example 73, 2-Methyl-6-phenyl-5-[4-({4-[3-(1H-pyrrol-2-yl)-1H-1,2,4-triazol-5-yl]piperidin-1-yl}methyl)phenyl][1,2,4]triazolo[1,5-a]pyrimidine] | – | < 10 µM
Brc1nc2nc(-c3ccc(CN4CCC(c5n[nH]c(-c6ccccn6)n5)CC4)cc3)c(-c3ccccc3)cn2n1 [Example 52, 2-Bromo-6-phenyl-5-(4-{[4-(5-pyridin-2-yl-1H-1,2,4-triazol-3-yl)piperidin-1-yl]methyl}phenyl)[1,2,4]triazolo[1,5-a]pyrimidine] | – | < 10 µM
c1ccc(-c2cn3nc(C4CC4)cc3nc2-c2ccc(CN3CCC(c4n[nH]c(-c5ccccn5)n4)CC3)cc2)cc1 [Example 48, 2-Cyclopropyl-6-phenyl-5-(4-{[4-(5-pyridin-2-yl-1H-1,2,4-triazol-3-yl)piperidin-1-yl]methyl}phenyl)pyrazolo[1,5-a]pyrimidine] | – | < 10 µM
c1ccc(-c2cn3ccnc3nc2-c2ccc(CN3CCC(c4n[nH]c(-c5ccccn5)n4)CC3)cc2)cc1 [Example 85, 6-phenyl-7-{4-[4-(5-pyridin-2-yl-1H-[1,2,4]triazol-3-yl)-piperidin-1-ylmethyl]-phenyl}-imidazo[1,2-a]pyrimidine] | – | > 10 µM
c1ccc(-c2cn3nccc3nc2-c2ccc(CN3CCC(c4nc(-c5ccc[nH]5)n[nH]4)CC3)cc2)cc1 [Example 72, 6-Phenyl-5-[4-({4-[3-(1H-pyrrol-2-yl)-1H-1,2,4-triazol-5-yl]piperidin-1-yl}methyl)phenyl]pyrazolo[1,5-a]pyrimidine] | – | < 10 µM
c1ccc(-c2cn3nccc3nc2-c2ccc(CN3CCC(c4nc(-c5nccs5)n[nH]4)CC3)cc2)cc1 [Example 70, 6-Phenyl-5-[4-({4-[3-(1,3-thiazol-2-yl)-1H-1,2,4-triazol-5-yl]piperidin-1-yl}methyl)phenyl]pyrazolo[1,5-a]pyrimidine] | – | > 10 µM
Cc1cccc(-c2n[nH]c(C3CCN(Cc4ccc(-c5nc6nc(C)nn6cc5-c5ccccc5)cc4)CC3)n2)n1 [Example 74, 2-Methyl-5-[4-({4-[3-(6-methylpyridin-2-yl)-1H-1,2,4-triazol-5-yl]piperidin-1-yl}methyl)phenyl]-6-phenyl[1,2,4]triazolo[1,5-a]pyrimidine] | – | < 10 µM
